How the values were obtained:
human mGluR2 receptor = biological target: T1, human mGluR2 receptor (Homo sapiens, UniProt Q14416); experiment: [35S]GTPγS binding assay, mGluR2 positive allosteric modulation (PAM); type: biochemical; conditions: in presence of ~EC20 glutamate, membranes of CHO cells with human mGluR2; for EC50: read-out: GTPγS-hmGluR2 PAM pEC50 (converted)
T1 construct: expressed in transfected cells; host or cells: CHO cells (membranes)
Method: The [^35S]GTPγS binding assay is a functional membrane-based assay used to study G-protein coupled receptor (GPCR) function whereby incorporation of a non-hydrolysable form of GTP, [^35S]GTPγS (guanosine 5′-triphosphate, labelled with […] ^35S), is measured.
CHO-cells were cultured to pre-confluence and stimulated with 5 mM butyrate for 24 h. Cells were then collected by scraping in PBS and cell suspension was centrifuged (10 min at 4000 RPM in benchtop centrifuge). Supernatant was discarded and pellet gently resuspended in 50 mM Tris-HCl, pH 7.4 by mixing with a vortex and pipetting up and down. The suspension was centrifuged at 16,000 RPM (Sorvall RC-5C plus rotor SS-34) for 10 minutes and the supernatant discarded. The pellet was homogenized in 5 mM Tris-HCl, pH 7.4 using an ultra-turrax homogenizer and centrifuged again (18,000 RPM, 20 min, 4° C.). The final pellet was resuspended in 50 mM Tris-HCl, pH 7.4 and stored at −80° C. in appropriate aliquots before use. Protein concentration was determined by the Bradford method (Bio-Rad, USA) with bovine serum albumin as standard.
Measurement of mGluR2 positive allosteric modulatory activity of test compounds was performed as follows. Test compounds and glutamate were diluted in assay buffer containing 10 mM HEPES acid, 10 mM HEPES salt, pH 7.4, 100 mM NaCl, 3 mM MgCl2 and 10 μM GDP. Human mGlu2 receptor-containing membranes were thawed on ice and diluted in assay buffer supplemented with 14 μg/ml saponin. Membranes were pre-incubated with compound alone or together with a predefined (˜EC20) concentration of glutamate (PAM assay) for 30 min at 30° C. After addition of [^35S]GTPγS (f.c. 0.1 nM), assay mixtures were shaken briefly and further incubated to allow [^35S]GTPγS incorporation on activation (30 minutes, 30° C.). Final assay mixtures contained 7 μg of membrane protein in 10 mM HEPES acid, 10 mM HEPES salt, pH 7.4, 100 mM NaCl, 3 mM MgCl2,10 μM GDP and 10 μg/ml saponin. Total reaction volume was 200 μl. Reactions were terminated by rapid filtration through Unifilter-96 GF/B plates (Perkin Elmer, Mass., USA) using a 96-well filtermate universal harvester. Filters were washed 6 times with ice-cold 10 mM NaH2PO4/10 mM Na2HPO4, pH 7.4. Filters were then air-dried, and 40 μl of liquid scintillation cocktail (Microscint-O) was added to each well. Membrane-bound radioactivity was counted in a Microplate Scintillation and Luminescence Counter from Perkin Elmer.
The concentration-response curves of representative compounds of the present invention—obtained in the presence of EC20 of mGluR2 agonist glutamate to determine positive allosteric modulation (PAM)—were generated using the Lexis software interface (developed at J&J). Data were calculated as % of the control glutamate response, defined as the maximal response that is generated upon addition of glutamate alone. Sigmoid concentration-response curves plotting these percentages versus the log concentration of the test compound were analyzed using non-linear regression analysis. The concentration producing half-maximal effect is then calculated as EC50.
The pEC50 values below were calculated as the −log EC50, when the EC50 is expressed in M.

[1] = system: hmGluR1, hmGluR3, hmGluR4, hmGluR5, rmGluR6, hmGluR7 and hmGluR8; experiment: Selectivity for hmGluR2 in functional receptor assays (Ca2+ mobilization or [35S]GTPγS); type: cell-based, human; rat (mGluR6); conditions: hmGluR2 versus other mGluRs
Method: (§1) Selectivity of the compounds for hmGluR2 versus hmGluR1, hmGluR3, hmGluR4, hmGluR5, rmGluR6, hmGluR7 and hmGluR8 was determined using functional receptor assays (either measuring changes in intracellular Ca2+ mobilization or G protein activation via [^35S]GTPγS) with cells overexpressing the receptor of interest.

hmGluR3 = biological target: T2, hmGluR3 (Homo sapiens, UniProt Q14832); experiment: Selectivity functional receptor assay, mGluR3; type: cell-based; conditions: hmGluR2 versus mGluR3
T2 construct: expressed in transfected cells
Method: as §1

hmGluR7 = biological target: T3, hmGluR7 (Homo sapiens, UniProt Q14831); experiment: Selectivity functional receptor assay, mGluR7; type: cell-based; conditions: hmGluR2 versus mGluR7
T3 construct: expressed in transfected cells
Method: as §1

hmGluR8 = biological target: T4, hmGluR8 (Homo sapiens, UniProt O00222); experiment: Selectivity functional receptor assay, mGluR8; type: cell-based; conditions: hmGluR2 versus mGluR8
T4 construct: expressed in transfected cells
Method: as §1

T2 sequence (Q14832 23-879): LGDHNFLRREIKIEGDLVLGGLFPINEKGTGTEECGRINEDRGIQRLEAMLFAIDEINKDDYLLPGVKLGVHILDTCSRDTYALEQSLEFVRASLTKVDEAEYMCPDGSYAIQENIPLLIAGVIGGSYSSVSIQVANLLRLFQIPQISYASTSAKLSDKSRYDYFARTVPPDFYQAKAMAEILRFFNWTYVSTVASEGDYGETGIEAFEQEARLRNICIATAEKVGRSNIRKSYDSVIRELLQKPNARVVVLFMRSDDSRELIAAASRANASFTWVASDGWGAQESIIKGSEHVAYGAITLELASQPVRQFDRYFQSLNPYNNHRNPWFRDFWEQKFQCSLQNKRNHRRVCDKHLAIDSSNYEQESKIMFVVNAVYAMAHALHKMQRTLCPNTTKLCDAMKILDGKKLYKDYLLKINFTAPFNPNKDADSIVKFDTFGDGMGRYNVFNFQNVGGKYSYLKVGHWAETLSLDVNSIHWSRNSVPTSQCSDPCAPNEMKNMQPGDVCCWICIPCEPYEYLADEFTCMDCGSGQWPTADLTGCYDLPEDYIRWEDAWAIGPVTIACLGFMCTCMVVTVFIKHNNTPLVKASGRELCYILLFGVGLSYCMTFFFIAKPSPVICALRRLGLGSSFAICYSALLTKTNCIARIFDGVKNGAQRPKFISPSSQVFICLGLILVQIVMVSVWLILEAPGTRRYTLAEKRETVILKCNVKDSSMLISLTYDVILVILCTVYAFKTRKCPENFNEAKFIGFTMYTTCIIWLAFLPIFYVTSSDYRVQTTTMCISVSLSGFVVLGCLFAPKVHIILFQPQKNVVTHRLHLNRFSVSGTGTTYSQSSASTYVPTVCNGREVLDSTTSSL
T4 sequence (O00222 34-908): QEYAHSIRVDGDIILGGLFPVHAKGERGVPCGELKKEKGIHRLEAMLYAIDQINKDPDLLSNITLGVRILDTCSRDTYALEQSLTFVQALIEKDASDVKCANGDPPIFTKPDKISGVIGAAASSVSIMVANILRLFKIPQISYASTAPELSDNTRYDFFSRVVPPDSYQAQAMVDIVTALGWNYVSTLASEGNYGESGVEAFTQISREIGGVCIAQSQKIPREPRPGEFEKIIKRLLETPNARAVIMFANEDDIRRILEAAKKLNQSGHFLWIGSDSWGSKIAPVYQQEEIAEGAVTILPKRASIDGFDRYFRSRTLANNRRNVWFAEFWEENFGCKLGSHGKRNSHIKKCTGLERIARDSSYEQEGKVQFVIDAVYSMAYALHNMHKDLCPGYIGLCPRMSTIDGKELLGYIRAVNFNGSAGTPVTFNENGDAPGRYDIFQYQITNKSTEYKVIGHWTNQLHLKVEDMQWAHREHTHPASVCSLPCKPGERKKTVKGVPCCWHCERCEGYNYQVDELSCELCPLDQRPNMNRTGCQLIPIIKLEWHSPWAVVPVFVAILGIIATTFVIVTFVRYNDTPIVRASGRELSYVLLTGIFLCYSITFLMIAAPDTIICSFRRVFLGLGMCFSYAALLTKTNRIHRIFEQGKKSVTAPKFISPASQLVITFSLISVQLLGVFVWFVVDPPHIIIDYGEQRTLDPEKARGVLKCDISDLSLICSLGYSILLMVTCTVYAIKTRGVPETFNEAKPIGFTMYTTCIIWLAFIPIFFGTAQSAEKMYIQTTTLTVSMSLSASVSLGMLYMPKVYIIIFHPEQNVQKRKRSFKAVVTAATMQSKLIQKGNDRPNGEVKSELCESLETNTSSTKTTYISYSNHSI
T1 sequence (Q14416 19-872): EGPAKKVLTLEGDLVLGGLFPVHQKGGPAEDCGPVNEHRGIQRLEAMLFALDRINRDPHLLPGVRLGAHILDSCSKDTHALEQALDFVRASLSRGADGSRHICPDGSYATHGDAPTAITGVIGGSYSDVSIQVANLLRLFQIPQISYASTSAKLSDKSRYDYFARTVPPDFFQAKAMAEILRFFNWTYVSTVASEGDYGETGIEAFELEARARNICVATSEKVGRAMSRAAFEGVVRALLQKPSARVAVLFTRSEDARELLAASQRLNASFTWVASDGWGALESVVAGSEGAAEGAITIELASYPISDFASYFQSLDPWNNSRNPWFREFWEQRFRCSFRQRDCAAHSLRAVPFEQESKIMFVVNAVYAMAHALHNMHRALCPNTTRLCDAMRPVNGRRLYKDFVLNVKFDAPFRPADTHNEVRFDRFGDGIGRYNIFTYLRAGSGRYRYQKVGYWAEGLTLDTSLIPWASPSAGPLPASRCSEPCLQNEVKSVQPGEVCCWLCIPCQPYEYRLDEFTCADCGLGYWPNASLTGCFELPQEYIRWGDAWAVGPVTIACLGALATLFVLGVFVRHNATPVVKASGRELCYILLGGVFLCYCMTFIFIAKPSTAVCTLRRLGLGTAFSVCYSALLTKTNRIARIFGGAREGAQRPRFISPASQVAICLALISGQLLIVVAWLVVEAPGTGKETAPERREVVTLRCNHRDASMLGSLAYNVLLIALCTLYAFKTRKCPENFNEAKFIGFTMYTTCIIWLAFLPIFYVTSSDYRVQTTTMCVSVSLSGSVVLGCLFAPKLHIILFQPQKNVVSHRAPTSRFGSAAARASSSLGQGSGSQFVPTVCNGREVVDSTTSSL
T3 sequence (Q14831 35-915): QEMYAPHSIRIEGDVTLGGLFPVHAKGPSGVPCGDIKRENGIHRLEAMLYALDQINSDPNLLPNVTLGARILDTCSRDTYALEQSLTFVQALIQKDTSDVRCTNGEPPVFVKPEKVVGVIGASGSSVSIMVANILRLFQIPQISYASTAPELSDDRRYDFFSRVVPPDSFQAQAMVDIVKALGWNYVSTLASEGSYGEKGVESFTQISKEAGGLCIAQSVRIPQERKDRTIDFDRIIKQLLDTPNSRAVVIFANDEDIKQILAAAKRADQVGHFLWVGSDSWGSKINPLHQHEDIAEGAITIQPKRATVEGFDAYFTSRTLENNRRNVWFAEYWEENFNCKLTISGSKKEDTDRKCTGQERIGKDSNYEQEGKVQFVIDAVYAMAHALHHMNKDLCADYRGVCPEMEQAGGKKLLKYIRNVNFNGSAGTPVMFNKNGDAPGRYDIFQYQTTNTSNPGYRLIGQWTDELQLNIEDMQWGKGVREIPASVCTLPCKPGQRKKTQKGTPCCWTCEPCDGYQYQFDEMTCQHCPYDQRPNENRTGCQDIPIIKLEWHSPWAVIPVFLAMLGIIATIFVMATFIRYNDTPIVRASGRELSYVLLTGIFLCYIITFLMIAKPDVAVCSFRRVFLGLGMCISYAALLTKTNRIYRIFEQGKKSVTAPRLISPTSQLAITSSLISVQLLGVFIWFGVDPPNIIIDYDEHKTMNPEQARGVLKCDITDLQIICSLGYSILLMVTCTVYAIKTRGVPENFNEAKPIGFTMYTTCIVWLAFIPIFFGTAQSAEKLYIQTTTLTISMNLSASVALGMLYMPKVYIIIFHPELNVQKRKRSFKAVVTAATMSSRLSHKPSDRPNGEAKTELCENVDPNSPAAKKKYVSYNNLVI

Compound | GTPγS-hmGluR2 PAM pEC50 (human mGluR2 receptor) | Selectivity over mGluR1, mGluR3-mGluR8 [1] | melting point [°C] | EC50 (human mGluR2 receptor) [nM] | Selectivity over mGluR3 (hmGluR3) | Selectivity over mGluR7 (hmGluR7) | Selectivity over mGluR8 (hmGluR8)
COc1ccc(F)cc1C1CCN(c2ccn3c(CC(F)(F)F)nnc3c2Cl)CC1 [compound 1] | 7.98 | >1,000 fold | 259 | – | – | – | –
COc1c(F)ccc(F)c1C1CCN(c2ccn3c(CC4CC4)nnc3c2Cl)CC1 [compound 2] | – | >1,000 fold | 163.2 | 7.41 | – | – | –
COc1c(F)ccc(F)c1C1CCN(c2ccn3c(CC4CC4)nnc3c2C(F)(F)F)CC1 [compound 3] | 8.39 | >1,000 fold | 180.7 | – | – | – | –
COc1ccc(F)cc1C1CCN(c2ccn3c(CC4CC4)nnc3c2Cl)CC1 [compound 4] | – | > 500 fold | > 300 | 9.33 | ≥ 40 fold | – | –
COc1cccc(F)c1C1CCN(c2ccn3c(CC(F)(F)F)nnc3c2Cl)CC1 [compound 5] | – | ≧1,000 fold | – | 3.89 | – | – | –
COc1cccc(F)c1C1CCN(c2ccn3c(CC4CC4)nnc3c2Cl)CC1 [compound 6] | 8.22 | > 1,000 fold | – | – | > 300 fold | mGluR7 and mGluR8 for which selectivity >500 fold | mGluR7 and mGluR8 for which selectivity >500 fold
COc1cc(F)cc(F)c1C1CCN(c2ccn3c(CC4CC4)nnc3c2Cl)CC1 [compound 7] | 8.16 | >1,000 fold, except for mGluR3 and mGluR8 | 162.2 | – | ≧500 fold | – | ≧500 fold
COc1c(C2CCN(c3ccn4c(CC5CC5)nnc4c3Cl)CC2)ccc(F)c1F [compound 8] | – | > 1,000 fold | 173.5 | 26.3 | ≥ 400 fold | – | –
COc1c(F)cccc1C1CCN(c2ccn3c(CC4CC4)nnc3c2Cl)CC1 [compound 9] | 7.43 | >500 fold | 168.3 | – | – | – | –
COc1ccc(F)c(F)c1C1CCN(c2ccn3c(CC4CC4)nnc3c2Cl)CC1 [compound 10] | 8.03 | >1,000 fold, except for mGluR3 and mGluR8 for | 208.5 | – | which selectivity ≧500 fold | – | which selectivity ≧500 fold
COc1ccccc1C1CCN(c2ccn3c(CC4CC4)nnc3c2Cl)CC1 [compound 11] | 7.7 | >100, except for mGluR3 for which selectivity fold | – | – | ~20 fold | – | –
COc1c(F)cccc1C1CCN(c2ccn3c(CC4CC4)nnc3c2C(F)(F)F)CC1 [compound 12] | – | ≥ 1,000 fold | 195.7 | 11.2 | ≥ 200 fold | – | –
